Test results reported in patent US20230255953A1, “USE OF ROLUPERIDONE IN PREVENTING RELAPSE IN SCHIZOPHRENIA PATIENTS” (Minerva Neurosciences, Inc., priority 2022, published 2023).

Test system: patients with negative symptoms of schizophrenia
Assay: Integrated analysis (pooled ITT): patient disposition, reasons for withdrawal
Assay type: in vivo, human
Settings: for Withdrawn from double-blind period: Adverse event, % / Withdrawn from double-blind period: Death, % / Withdrawn from double-blind period: Lack of efficacy, %: DB
Procedure: The Efficacy data from Study Nos. 1 and 2 were pooled. The majority of patients in the pooled ITT population completed the DB period (502 patients overall, 66.3%), with similar rates in each treatment group (placebo: 69.8%, 32 mg Roluperidone: 65.3%, and 64 mg Roluperidone: 63.8%) (Table 12). The majority (62.7%) of those who completed the DB period entered the OL period. The most common reason for discontinuation during the DB period among patients overall was withdrawal of consent (15.6%), followed by adverse events (7.3%) and lack of efficacy (5.4%) (Table 12). […] Approximately twice as many patients in the Roluperidone groups (32 mg: 8.5%; 64 mg: 9.1%) discontinued due to adverse events compared with patients in the placebo group (4.3%). More patients in the placebo group discontinued due to lack of efficacy (6.7%) than in the Roluperidone groups (32 mg: 4.4%; 64 mg: 5.1%). The low number of patients who discontinued due to lack of efficacy or withdrawal of consent probably reflects a low level of worsening of positive symptoms.
A similar proportion of patients in each OL treatment group entered the OL period from the DB period (range: 61.3% to 65.6%) (Table 13). The most common reason for discontinuation in the OL period among patients was withdrawal of consent (93 patients, 12.3%), followed by adverse event (45 patients, 5.9%) and lack of efficacy (16 patients, 2.1%).

[1] = Placebo in DB to 32 mg in OL (N = 128)
[2] = Placebo in DB to 64 mg in OL (N = 127)
[3] = Placebo in DB to Roluperidone in OL, Total (N = 255)
[4] = Roluperidone at Any Time 32 mg (N = 376)
[5] = Roluperidone at Any Time 64 mg (N = 381)

## 1H-Isoindol-1-one,2-[ [1-[2-(4-fluorophenyl)-2-oxoethyl]-4-piperidinyl]methyl]-2,3-dihydro-, hydrochloride, hydrate (1:1:2) [Roluperidone]
32 mg (N = 248)
  Withdrawn from double-blind period: Adverse event, %: 8.5%
  Withdrawn from double-blind period: Death, %: 0.4%
  Withdrawn from double-blind period: Lack of efficacy, %: 4.4%
64 mg (N = 254)
  Withdrawn from double-blind period: Adverse event, %: 9.1%
  Withdrawn from double-blind period: Lack of efficacy, %: 5.1%
[1]
  Withdrawn from OL period: Adverse event, %: (6.3) %
  Withdrawn from OL period: Lack of efficacy, %: (3.1) %
[2]
  Withdrawn from OL period: Adverse event, %: (3.9) %
  Withdrawn from OL period: Lack of efficacy, %: (1.6) %
[3]
  Withdrawn from OL period: Adverse event, %: (5.1) %
  Withdrawn from OL period: Lack of efficacy, %: (2.4) %
Roluperidone Total (N = 502)
  Withdrawn from double-blind period: Adverse event, %: 8.8%
  Withdrawn from double-blind period: Death, %: 0.2%
  Withdrawn from double-blind period: Lack of efficacy, %: 4.8%
[4]
  Withdrawn from OL period: Adverse event, %: (5.6) %
  Withdrawn from OL period: Lack of efficacy, %: (2.1) %
[5]
  Withdrawn from OL period: Adverse event, %: (6.3) %
  Withdrawn from OL period: Lack of efficacy, %: (2.1) %
